Values after ≈ are worked out from the molar mass of the structure shown. Active and inactive are the calls of the source. No cut-off for these calls is given here.
Tests used:
Escherichia coli [1] = assay: Antimicrobial activity against Escherichia coli ATCC 10536 by tube dilution method; format: functional
Escherichia coli [2] = assay: Antimicrobial activity against Escherichia coli Baker 2 carrying APH(3')-I by tube dilution method; format: functional
Escherichia coli [3] = assay: Antimicrobial activity against Escherichia coli LA290R55 carrying ANT(2'') by tube dilution method; format: functional
Escherichia coli [4] = assay: Antimicrobial activity against Escherichia coli JR88 carrying AAC(3) by tube dilution method; format: functional
Escherichia coli [5] = assay: Antimicrobial activity against Escherichia coli HL97/W677 carrying AAC(6') by tube dilution method; format: functional
Pseudomonas aeruginosa [6] = assay: Antimicrobial activity against Pseudomonas aeruginosa St. M. 762 by tube dilution method; format: functional
Pseudomonas aeruginosa [7] = assay: Antimicrobial activity against Pseudomonas aeruginosa St. M. 1395 by tube dilution method; format: functional
Pseudomonas aeruginosa [8] = assay: Antimicrobial activity against Pseudomonas aeruginosa Stone 130 carrying AAC(3) by tube dilution method; format: functional
Pseudomonas aeruginosa [9] = assay: Antimicrobial activity against Pseudomonas aeruginosa GN 315 carrying AAC(6') by tube dilution method; format: functional
Klebsiella pneumoniae [10] = assay: Antimicrobial activity against Klebsiella pneumoniae Adler 17 carrying APH(3')-I by tube dilution method; format: functional
Klebsiella pneumoniae [11] = assay: Antimicrobial activity against Klebsiella pneumoniae Georgetown 3694 carrying APH(2'') by tube dilution method; format: functional
Providencia = assay: Antimicrobial activity against Providencia 164 carrying AAC(2')-I by tube dilution method; format: functional
Proteus mirabilis = assay: Antimicrobial activity against Proteus mirabilis Harding by tube dilution method; format: functional
Providencia rettgeri [12] = assay: Antimicrobial activity against Providencia rettgeri Membel by tube dilution method; format: functional
Providencia rettgeri [13] = assay: Antimicrobial activity against Providencia rettgeri Anderson by tube dilution method; format: functional
Serratia marcescens = assay: Antimicrobial activity against Serratia marcescens Dalton by tube dilution method; format: functional
Salmonella typhimurium = assay: Antimicrobial activity against Salmonella typhimurium Gr. B. by tube dilution method; format: functional, Salmonella enterica subsp. enterica serovar Typhimurium; conditions: Salmonella enterica
Bacillus subtilis = assay: Antimicrobial activity against Bacillus subtilis ATCC 6633 by tube dilution method; format: functional
Staphylococcus aureus [14] = assay: Antimicrobial activity against Staphylococcus aureus 209 P by tube dilution method; format: functional
Staphylococcus aureus [15] = assay: Antimicrobial activity against Staphylococcus aureus Wood by tube dilution method; format: functional
Staphylococcus aureus [16] = assay: Antimicrobial activity against Staphylococcus aureus Ziegler by tube dilution method; format: functional
Staphylococcus aureus [17] = assay: Antimicrobial activity against Staphylococcus aureus 59N by tube dilution method; format: functional
Streptococcus pyogenes [18] = assay: Antimicrobial activity against Streptococcus pyogenes C by tube dilution method; format: functional
Streptococcus pyogenes [19] = assay: Antimicrobial activity against Streptococcus pyogenes 27 by tube dilution method; format: functional
Streptococcus pyogenes [20] = assay: Antimicrobial activity against Streptococcus pyogenes Group A Cruz by tube dilution method; format: functional
Streptococcus pyogenes [21] = assay: Antimicrobial activity against Streptococcus pyogenes Alvarez by tube dilution method; format: functional
[22] = Acute toxicity in albino CF1 mouse; format: organism-based; conditions: in vivo
Trichomonas vaginalis = assay: Antiprotozoal activity against Trichomonas vaginalis after 48 hrs; format: functional
Entamoeba histolytica = assay: Antiprotozoal activity against Entamoeba histolytica JH; format: functional
Histomonas meleagridis [23] = assay: Antiprotozoal activity against Histomonas meleagridis at 20 ug/ml; format: functional
[24] = test system: Heligmosomoides polygyrus; assay: Anthelmintic activity against Nematospiroides dubius infected in mouse at 195 mg/kg qd for 5 days administered after 2 weeks of infection; format: functional, organism-based; parameters: dose 195 mg/kg
Rodentolepis nana = assay: Anthelmintic activity against Hymenolepis nana infected in mouse at 195 mg/kg qd for 5 days administered after 2 weeks of infection; format: functional, organism-based; parameters: dose 195 mg/kg
Syphacia obvelata = assay: Anthelmintic activity against Syphacia obvelata infected in mouse at 195 mg/kg qd for 5 days administered after 2 weeks of infection; format: functional, organism-based; parameters: dose 195 mg/kg
Histomonas meleagridis [25] = assay: Antiprotozoal activity against Histomonas meleagridis; format: functional

Row | Compound | MIC (Escherichia coli [1]) | MIC (Escherichia coli [2]) | MIC (Escherichia coli [3]) | MIC (Escherichia coli [4]) | MIC (Escherichia coli [5]) | MIC (Pseudomonas aeruginosa [6]) | MIC (Pseudomonas aeruginosa [7]) | MIC (Pseudomonas aeruginosa [8]) | MIC (Pseudomonas aeruginosa [9]) | MIC (Klebsiella pneumoniae [10]) | MIC (Klebsiella pneumoniae [11]) | MIC (Providencia) | MIC (Proteus mirabilis) | MIC (Providencia rettgeri [12]) | MIC (Providencia rettgeri [13]) | MIC (Serratia marcescens) | MIC (Salmonella typhimurium) | MIC (Bacillus subtilis) | MIC (Staphylococcus aureus [14]) | MIC (Staphylococcus aureus [15]) | also measured
1 | CN[C@@H]1[C@@H](O)[C@@H](O[C@@H]2[C@@H](O)[C@H](O[C@H]3OC(CO)=CC[C@H]3N)[C@@H](N)C[C@H]2N)OC[C@]1(C)O | 0.75 µg/mL (≈ 1.67 µM) | 17.5 µg/mL (≈ 39 µM) | > 25 µg/mL | > 25 µg/mL | 0.3 µg/mL (≈ 0.669 µM) | 3 µg/mL (≈ 6.69 µM) | 17.5 µg/mL (≈ 39 µM) | > 25 µg/mL | > 25 µg/mL | 3 µg/mL (≈ 6.69 µM) | > 25 µg/mL | > 25 µg/mL | 3 µg/mL (≈ 6.69 µM) | > 25 µg/mL | > 25 µg/mL | 3 µg/mL (≈ 6.69 µM) | 3 µg/mL (≈ 6.69 µM) | 0.075 µg/mL (≈ 0.167 µM) | 0.3 µg/mL (≈ 0.669 µM) | 0.3 µg/mL (≈ 0.669 µM) | MIC (Staphylococcus aureus [16]): 0.3 µg/mL (≈ 0.669 µM); MIC (Staphylococcus aureus [17]): 0.075 µg/mL (≈ 0.167 µM); MIC (Streptococcus pyogenes [18]): > 25 µg/mL; MIC (Streptococcus pyogenes [19]): > 25 µg/mL; MIC (Streptococcus pyogenes [20]): > 25 µg/mL; MIC (Streptococcus pyogenes [21]): > 25 µg/mL; LD50 [22]: 65 mg/kg; MIC (Trichomonas vaginalis): < 10 µg/mL; MIC (Entamoeba histolytica): 10 µg/mL (≈ 22.3 µM); Activity (Histomonas meleagridis [23]): inactive; Activity [24]: inactive; Activity (Rodentolepis nana): inactive; Activity (Syphacia obvelata): inactive
2 | CNCC1=CC[C@@H](N)[C@@H](O[C@H]2[C@H](O)[C@@H](O[C@H]3OC[C@](C)(O)[C@H](NC)[C@H]3O)[C@H](N)C[C@@H]2N)O1 | 0.3 µg/mL (≈ 0.65 µM) | 0.75 µg/mL (≈ 1.62 µM) | 17.5 µg/mL (≈ 37.9 µM) | > 25 µg/mL | 0.75 µg/mL (≈ 1.62 µM) | 0.3 µg/mL (≈ 0.65 µM) | 0.3 µg/mL (≈ 0.65 µM) | > 25 µg/mL | 0.3 µg/mL (≈ 0.65 µM) | 0.075 µg/mL (≈ 0.162 µM) | > 25 µg/mL | > 25 µg/mL | 0.75 µg/mL (≈ 1.62 µM) | 3 µg/mL (≈ 6.5 µM) | > 25 µg/mL | 0.3 µg/mL (≈ 0.65 µM) | 3 µg/mL (≈ 6.5 µM) | < 0.01 µg/mL | < 0.01 µg/mL | < 0.01 µg/mL | MIC (Staphylococcus aureus [16]): 0.03 µg/mL (≈ 0.065 µM); MIC (Staphylococcus aureus [17]): 0.03 µg/mL (≈ 0.065 µM); MIC (Streptococcus pyogenes [18]): 3 µg/mL (≈ 6.5 µM); MIC (Streptococcus pyogenes [19]): 0.3 µg/mL (≈ 0.65 µM); MIC (Streptococcus pyogenes [20]): 0.3 µg/mL (≈ 0.65 µM); MIC (Streptococcus pyogenes [21]): > 25 µg/mL; LD50 [22]: 50 mg/kg; Activity (Trichomonas vaginalis): inactive; Activity (Entamoeba histolytica): inactive; Activity (Histomonas meleagridis [25]): inactive
3 | CN[C@@H]1[C@@H](O)[C@@H](O[C@@H]2[C@@H](O)[C@H](O[C@H]3OC(CNCCc4ccccc4)=CC[C@H]3N)[C@@H](N)C[C@H]2N)OC[C@]1(C)O | 0.75 µg/mL (≈ 1.36 µM) | 7.5 µg/mL (≈ 13.6 µM) | > 25 µg/mL | > 25 µg/mL | 0.75 µg/mL (≈ 1.36 µM) | > 25 µg/mL | > 25 µg/mL | > 25 µg/mL | > 25 µg/mL | > 25 µg/mL | > 25 µg/mL | > 25 µg/mL | > 25 µg/mL | > 25 µg/mL | > 25 µg/mL | > 25 µg/mL | 17.5 µg/mL (≈ 31.7 µM) | 0.03 µg/mL (≈ 0.0544 µM) | 3 µg/mL (≈ 5.44 µM) | 3 µg/mL (≈ 5.44 µM) | MIC (Staphylococcus aureus [16]): 7.5 µg/mL (≈ 13.6 µM); MIC (Staphylococcus aureus [17]): 3 µg/mL (≈ 5.44 µM); MIC (Streptococcus pyogenes [18]): > 25 µg/mL; MIC (Streptococcus pyogenes [19]): 17.5 µg/mL (≈ 31.7 µM); MIC (Streptococcus pyogenes [20]): > 25 µg/mL; MIC (Streptococcus pyogenes [21]): > 25 µg/mL; LD50 [22]: 30 mg/kg; Activity (Trichomonas vaginalis): inactive; Activity (Entamoeba histolytica): inactive; Activity (Histomonas meleagridis [25]): inactive
